According to ChEMBL document CHEMBL4806968, “Hipk inhibitors and methods of use thereof” (2020):

How the values were obtained:
[1] = target: T1, Discoidin domain-containing receptor 2 (Homo sapiens) (UniProt Q16832); assay: Inhibition of DDR2 (unknown origin) at 0.5 uM relative to control
T1 sequence (whole entry): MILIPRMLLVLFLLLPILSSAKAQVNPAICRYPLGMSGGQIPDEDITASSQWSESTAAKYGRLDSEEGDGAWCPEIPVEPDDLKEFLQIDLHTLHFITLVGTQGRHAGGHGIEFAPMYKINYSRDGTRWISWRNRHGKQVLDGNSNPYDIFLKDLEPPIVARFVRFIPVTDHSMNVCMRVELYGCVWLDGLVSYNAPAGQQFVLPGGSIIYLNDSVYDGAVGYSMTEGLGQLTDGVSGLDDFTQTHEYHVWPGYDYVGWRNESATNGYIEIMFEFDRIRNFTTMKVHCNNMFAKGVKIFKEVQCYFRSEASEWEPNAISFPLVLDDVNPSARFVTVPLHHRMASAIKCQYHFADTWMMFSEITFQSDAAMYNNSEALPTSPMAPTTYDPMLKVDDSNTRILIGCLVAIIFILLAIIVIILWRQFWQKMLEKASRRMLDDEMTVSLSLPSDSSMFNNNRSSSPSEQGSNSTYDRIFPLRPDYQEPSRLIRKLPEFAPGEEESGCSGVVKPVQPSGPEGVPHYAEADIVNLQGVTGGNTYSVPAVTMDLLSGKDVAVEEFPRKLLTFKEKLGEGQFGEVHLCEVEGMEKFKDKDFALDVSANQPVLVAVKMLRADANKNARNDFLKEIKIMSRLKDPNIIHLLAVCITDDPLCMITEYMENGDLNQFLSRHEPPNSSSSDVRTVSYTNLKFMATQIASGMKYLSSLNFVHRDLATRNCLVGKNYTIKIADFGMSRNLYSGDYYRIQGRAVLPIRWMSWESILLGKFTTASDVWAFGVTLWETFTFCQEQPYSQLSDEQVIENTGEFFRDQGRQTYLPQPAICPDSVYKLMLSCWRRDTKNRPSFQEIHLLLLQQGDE

[2] = target: Tyrosine-protein kinase Lck (Homo sapiens) (UniProt P06239); assay: Inhibition of LCK (unknown origin) at 0.5 uM relative to control
[3] = target: Protein-tyrosine kinase 6 (Homo sapiens) (UniProt Q13882); assay: Inhibition of BRK (unknown origin) at 0.5 uM relative to control
[4] = target: NT-3 growth factor receptor (Homo sapiens) (UniProt Q16288); assay: Inhibition of TRKC (unknown origin) at 0.5 uM relative to control
[5] = target: BDNF/NT-3 growth factors receptor (Homo sapiens) (UniProt Q16620); assay: Inhibition of TRKB (unknown origin) at 0.5 uM relative to control
[6] = target: Mast/stem cell growth factor receptor Kit (Homo sapiens) (UniProt P10721); assay: Inhibition of KIT (unknown origin) at 0.5 uM relative to control
[7] = target: T2, Ephrin type-A receptor 6 (Homo sapiens) (UniProt Q9UF33); assay: Inhibition of EPHA6 (unknown origin) at 0.5 uM relative to control
T2 sequence (whole entry): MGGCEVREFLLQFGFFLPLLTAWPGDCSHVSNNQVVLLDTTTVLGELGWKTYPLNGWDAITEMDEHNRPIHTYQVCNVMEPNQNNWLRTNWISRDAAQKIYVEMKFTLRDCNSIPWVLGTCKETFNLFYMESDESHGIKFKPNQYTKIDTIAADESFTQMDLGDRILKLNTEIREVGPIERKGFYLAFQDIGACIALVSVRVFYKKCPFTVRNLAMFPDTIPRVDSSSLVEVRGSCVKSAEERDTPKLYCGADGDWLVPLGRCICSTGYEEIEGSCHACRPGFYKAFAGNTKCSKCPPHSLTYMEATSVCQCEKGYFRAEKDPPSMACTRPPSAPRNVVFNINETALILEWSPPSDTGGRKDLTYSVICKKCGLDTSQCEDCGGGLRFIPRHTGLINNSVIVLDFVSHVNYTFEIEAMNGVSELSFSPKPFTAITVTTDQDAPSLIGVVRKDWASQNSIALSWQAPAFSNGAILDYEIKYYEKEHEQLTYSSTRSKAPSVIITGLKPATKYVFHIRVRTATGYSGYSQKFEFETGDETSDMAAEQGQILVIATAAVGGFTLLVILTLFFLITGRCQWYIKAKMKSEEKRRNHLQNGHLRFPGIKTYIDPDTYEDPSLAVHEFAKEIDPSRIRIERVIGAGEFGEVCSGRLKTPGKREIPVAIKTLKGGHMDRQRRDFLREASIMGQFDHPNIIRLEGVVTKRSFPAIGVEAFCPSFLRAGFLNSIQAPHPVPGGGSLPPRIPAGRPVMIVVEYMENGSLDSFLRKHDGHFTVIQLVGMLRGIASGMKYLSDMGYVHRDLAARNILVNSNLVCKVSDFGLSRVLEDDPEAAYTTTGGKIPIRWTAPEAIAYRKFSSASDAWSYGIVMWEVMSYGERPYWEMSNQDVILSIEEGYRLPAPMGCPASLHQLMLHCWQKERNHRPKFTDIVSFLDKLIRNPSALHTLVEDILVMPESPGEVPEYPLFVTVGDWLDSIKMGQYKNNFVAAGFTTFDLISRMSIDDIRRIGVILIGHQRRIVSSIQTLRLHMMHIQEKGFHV

[8] = target: High affinity nerve growth factor receptor (Homo sapiens) (UniProt P04629); assay: Inhibition of TRKA (unknown origin) at 0.5 uM relative to control
Sequence of High affinity nerve growth factor receptor (Homo sapiens) (P04629 33-796 limits assumed): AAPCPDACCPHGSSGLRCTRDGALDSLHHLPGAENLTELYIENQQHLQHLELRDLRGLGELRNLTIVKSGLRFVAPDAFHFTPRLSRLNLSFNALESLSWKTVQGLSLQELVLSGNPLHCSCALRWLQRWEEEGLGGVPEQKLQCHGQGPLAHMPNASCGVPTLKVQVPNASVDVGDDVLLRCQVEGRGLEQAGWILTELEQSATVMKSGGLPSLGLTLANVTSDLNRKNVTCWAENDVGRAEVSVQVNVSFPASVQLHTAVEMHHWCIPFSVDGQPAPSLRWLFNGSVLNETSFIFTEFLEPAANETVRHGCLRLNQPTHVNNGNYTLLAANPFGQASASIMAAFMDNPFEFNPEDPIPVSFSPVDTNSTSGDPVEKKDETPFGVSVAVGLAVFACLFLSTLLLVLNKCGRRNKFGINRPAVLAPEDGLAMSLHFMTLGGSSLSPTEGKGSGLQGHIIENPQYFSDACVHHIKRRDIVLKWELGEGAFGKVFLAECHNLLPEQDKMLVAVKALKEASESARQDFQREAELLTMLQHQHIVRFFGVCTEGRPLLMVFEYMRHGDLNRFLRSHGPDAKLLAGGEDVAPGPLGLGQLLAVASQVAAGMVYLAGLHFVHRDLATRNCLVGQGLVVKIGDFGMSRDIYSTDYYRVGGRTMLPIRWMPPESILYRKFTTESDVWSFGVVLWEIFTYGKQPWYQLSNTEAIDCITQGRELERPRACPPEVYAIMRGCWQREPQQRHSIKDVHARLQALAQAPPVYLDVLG

Sequence of Protein-tyrosine kinase 6 (Homo sapiens) (Q13882 whole entry, looked up): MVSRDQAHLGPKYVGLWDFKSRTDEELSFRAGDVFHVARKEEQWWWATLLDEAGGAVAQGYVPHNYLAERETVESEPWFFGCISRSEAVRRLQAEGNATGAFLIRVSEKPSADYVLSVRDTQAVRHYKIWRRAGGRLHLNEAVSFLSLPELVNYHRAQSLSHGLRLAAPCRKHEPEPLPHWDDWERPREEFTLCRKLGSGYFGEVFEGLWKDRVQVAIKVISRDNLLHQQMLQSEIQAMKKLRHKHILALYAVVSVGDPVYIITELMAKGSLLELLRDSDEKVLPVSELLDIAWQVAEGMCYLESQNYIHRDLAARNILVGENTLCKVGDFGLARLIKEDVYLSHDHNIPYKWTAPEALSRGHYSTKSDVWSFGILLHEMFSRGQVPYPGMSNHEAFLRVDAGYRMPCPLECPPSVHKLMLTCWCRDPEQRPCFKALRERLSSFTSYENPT
Sequence of Tyrosine-protein kinase Lck (Homo sapiens) (P06239 2-509 limits assumed): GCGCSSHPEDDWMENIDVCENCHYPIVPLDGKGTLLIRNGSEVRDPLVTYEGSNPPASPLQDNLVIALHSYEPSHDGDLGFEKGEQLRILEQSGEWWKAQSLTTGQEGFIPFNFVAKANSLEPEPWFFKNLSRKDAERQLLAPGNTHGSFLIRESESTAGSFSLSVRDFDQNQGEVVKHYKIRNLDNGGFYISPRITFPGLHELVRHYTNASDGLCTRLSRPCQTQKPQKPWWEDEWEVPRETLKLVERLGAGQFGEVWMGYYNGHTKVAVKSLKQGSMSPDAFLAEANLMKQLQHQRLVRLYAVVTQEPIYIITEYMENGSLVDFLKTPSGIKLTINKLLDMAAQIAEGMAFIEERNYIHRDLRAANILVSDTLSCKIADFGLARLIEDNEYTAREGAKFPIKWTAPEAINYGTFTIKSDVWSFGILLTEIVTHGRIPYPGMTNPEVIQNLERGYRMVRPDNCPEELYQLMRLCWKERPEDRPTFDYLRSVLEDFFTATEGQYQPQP
Sequence of Mast/stem cell growth factor receptor Kit (Homo sapiens) (P10721 whole entry): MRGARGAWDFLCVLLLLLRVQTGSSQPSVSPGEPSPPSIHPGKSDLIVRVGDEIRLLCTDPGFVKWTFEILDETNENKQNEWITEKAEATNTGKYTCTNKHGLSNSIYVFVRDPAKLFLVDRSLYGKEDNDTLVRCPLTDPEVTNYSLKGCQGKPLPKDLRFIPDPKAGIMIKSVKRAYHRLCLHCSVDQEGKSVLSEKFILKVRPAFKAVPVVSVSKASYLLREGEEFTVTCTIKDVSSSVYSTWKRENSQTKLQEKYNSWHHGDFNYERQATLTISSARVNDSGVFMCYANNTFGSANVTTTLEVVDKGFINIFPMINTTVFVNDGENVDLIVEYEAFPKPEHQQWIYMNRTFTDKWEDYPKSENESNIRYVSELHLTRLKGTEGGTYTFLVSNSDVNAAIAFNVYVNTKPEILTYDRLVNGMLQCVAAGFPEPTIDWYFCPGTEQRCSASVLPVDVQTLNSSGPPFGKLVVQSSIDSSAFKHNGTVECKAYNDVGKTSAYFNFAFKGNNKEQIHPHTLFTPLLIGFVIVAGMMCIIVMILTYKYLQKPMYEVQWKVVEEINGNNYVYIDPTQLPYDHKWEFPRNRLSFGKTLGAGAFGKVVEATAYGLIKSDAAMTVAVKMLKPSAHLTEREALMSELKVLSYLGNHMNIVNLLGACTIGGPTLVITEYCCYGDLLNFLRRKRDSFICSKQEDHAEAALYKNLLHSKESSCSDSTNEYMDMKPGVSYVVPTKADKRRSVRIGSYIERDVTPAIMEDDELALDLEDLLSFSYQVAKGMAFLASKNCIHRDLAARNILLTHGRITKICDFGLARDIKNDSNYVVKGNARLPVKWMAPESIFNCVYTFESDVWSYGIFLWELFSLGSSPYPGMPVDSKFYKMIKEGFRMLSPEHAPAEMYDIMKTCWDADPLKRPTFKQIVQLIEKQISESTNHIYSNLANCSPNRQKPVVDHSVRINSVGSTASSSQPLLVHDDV
Sequence of BDNF/NT-3 growth factors receptor (Homo sapiens) (Q16620 32-822 limits assumed): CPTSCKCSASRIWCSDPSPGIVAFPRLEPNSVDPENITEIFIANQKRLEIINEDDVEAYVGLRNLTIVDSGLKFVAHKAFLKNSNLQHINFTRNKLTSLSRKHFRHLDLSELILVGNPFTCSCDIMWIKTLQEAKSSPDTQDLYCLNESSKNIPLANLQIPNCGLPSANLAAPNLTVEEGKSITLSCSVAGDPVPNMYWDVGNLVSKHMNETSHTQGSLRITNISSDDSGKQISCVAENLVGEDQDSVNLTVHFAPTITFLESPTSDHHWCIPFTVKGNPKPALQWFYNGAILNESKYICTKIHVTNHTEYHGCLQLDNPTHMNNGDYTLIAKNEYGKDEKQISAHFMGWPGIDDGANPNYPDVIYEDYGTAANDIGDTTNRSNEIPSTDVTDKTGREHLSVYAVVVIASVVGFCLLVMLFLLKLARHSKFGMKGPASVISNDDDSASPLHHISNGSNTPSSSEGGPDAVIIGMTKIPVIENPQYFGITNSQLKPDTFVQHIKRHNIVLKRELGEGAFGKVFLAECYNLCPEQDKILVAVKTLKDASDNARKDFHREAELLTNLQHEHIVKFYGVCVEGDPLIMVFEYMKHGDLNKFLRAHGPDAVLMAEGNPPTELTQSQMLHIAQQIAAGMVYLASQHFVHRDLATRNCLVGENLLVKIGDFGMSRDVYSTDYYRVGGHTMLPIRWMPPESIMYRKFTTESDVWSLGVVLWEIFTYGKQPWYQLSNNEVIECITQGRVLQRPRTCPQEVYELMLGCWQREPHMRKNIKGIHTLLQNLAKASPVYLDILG
Sequence of NT-3 growth factor receptor (Homo sapiens) (Q16288 32-839 limits assumed): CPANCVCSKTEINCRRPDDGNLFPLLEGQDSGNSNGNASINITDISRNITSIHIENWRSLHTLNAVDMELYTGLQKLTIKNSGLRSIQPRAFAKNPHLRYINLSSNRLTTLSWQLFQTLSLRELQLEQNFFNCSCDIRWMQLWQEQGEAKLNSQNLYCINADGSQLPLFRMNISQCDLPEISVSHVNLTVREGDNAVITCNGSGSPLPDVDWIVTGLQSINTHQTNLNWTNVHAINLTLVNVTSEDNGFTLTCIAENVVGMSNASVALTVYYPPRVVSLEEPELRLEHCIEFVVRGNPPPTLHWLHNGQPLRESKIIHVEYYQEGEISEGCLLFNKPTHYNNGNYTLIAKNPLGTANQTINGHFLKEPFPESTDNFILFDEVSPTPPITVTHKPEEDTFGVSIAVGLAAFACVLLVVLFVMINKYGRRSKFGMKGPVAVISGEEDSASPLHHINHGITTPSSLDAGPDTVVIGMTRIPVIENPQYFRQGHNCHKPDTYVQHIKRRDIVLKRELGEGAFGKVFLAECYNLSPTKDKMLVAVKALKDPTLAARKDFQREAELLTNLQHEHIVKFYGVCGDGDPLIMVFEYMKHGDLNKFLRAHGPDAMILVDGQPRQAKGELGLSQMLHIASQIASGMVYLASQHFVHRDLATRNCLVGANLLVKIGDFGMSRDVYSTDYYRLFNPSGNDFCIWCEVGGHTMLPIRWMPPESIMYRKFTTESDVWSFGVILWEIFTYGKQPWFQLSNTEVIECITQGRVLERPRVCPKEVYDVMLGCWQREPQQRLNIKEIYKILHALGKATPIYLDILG

SMILES	inhibition [1] [%]	inhibition [2] [%]	inhibition [3] [%]	inhibition [4] [%]	inhibition [5] [%]	inhibition [6] [%]	inhibition [7] [%]	inhibition [8] [%]
CNC(=O)c1cc(Oc2ccc(NC(=O)c3nc(C(F)(F)F)sc3-c3ccc(F)cc3)cc2)ccn1	–	58	87	–	–	33	67	–
CSc1nc(C(=O)Nc2ccc(Oc3cc4cnn(C)c4cc3Br)cc2)c(-c2ccc(F)cc2)o1	48	–	–	–	–	–	19	–
CNC(=O)c1cc(Oc2ccc(NC(=O)c3nc(S(C)(=O)=O)sc3-c3ccc(F)cc3)cc2)ccn1	61	–	34	25	–	25	–	36
CNC(=O)c1cc(Oc2ccc(NC(=O)c3nc(SC)oc3-c3ccc(F)cc3)cc2F)ccn1	47	71	77	46	36	–	69	43
CNC(=O)c1cc(Oc2ccc(NC(=O)c3nc(SC)n(CCN(C)C)c3-c3ccc(F)cc3)cc2)ccn1	26	28	44	57	51	27	58	42

Now from value to compound:

inhibition [1] [%]	inhibition [2] [%]	inhibition [3] [%]	inhibition [4] [%]	inhibition [5] [%]	inhibition [6] [%]	inhibition [7] [%]	inhibition [8] [%]	SMILES
97	84	90	90	83	–	–	–	CNC(=O)c1cc(Oc2ccc(NC(=O)c3nc(SC)[nH]c3-c3ccc(F)cc3)cc2)ccn1
54	49	53	76	71	47	62	58	CNC(=O)c1cc(Oc2ccc(NC(=O)c3nc(NC)sc3-c3ccc(F)cc3)cc2)ccn1
58	77	80	51	40	40	69	47	CNC(=O)c1cc(Oc2ccc(NC(=O)c3nc(SC)oc3-c3ccc(F)cc3)cc2)ccn1
76	–	32	55	40	65	27	43	CNC(=O)c1cc(Oc2ccc(NC(=O)c3n[nH]nc3-c3ccc(F)cc3)cc2)ccn1
